Legend:
Dystrophic monocytes = test: Effect on human monocytes in culture (flat cells), dystrophic; format: cell-based; details: dystrophic monocyte + dibutryl c-GMP, one individual; untreated dystrophic 36.2%; preliminary
[1] = tested on: dystrophic New Hampshire chickens, line 413; test: Overall assessment of chemotherapy over all parameters measured; format: in vivo, chicken; details: 413 chickens, after 28 days of dilantin injections
Procedure: The compound IAPP was tested on dystrophic New Hampshire chickens, line 413, and Imperial College (London, England) sub-line of the original Davis, University of California strain. The chickens are homozygous for muscular dystrophy, the disease appearing with 100% incidence.
Chemotherapy was assessed by application of seven different parameters: physical tests of muscular disability, namely the flip test and wing apposition (W.A.) measurements; biochemical assays of serum and muscle enzume levels of creatine phosphokinase (CPK), pyruvate kinase (PK) and acetylcholinesterase (AChE); and histological comparisons of treated and untreated muscle. Toxicity studies (weight loss, etc.) were also used. A very comprehensive profile of the drug was thus obtained which related to all the known, highly characteristic features of the disease which are applicable to both the animal model and the human. […]

[2] = tested on: dystrophic 413 muscle explants; test: Microtubule complexes in muscle explants of injected dystrophic chickens; format: in vivo, chicken; details: dystrophic 413 chickens, 28 days of dilantin injections
From the text: Essentially, these experiments were divided into three subgroups, taken from the previous Table:
413A, 413B, 412A, 412B: All were sacrificed after 4 injections and muscle explants placed in culture.
413C, 412C: All were sacrificed after 8 injections and muscle explants were placed in culture.
413D, 412D: All were sacrificed after 10 injections and muscle explants placed in culture.
All explants were placed in CMRL culture medium containing 5% horse serum, 15% fetal bovine serum and 1% antibiotics and allowed to grow for 5-7 days before being fixed and observed for the presence or absence of microtubules. No IAPP was added to the culture medium during the 5-7 days in culture.

SMILES: CCCC(=O)Nc1nc2c(ncn2[C@@H]2O[C@@H]3COP(=O)(O)O[C@H]3[C@H]2OC(=O)CCC)c(=O)[nH]1 [dibutryl c-GMP, reference compound]
- % Flat Cells (Dystrophic monocytes): 52.0%

SMILES: O=C1NC(=O)C(c2ccccc2)(c2ccccc2)N1 [dilantin, reference compound]
- Appearance of dystrophic chickens [1]: Some dystrophic 413 chickens appeared normal
- Correction of microtubule defect in explants [2]: did not have their microtubule defect corrected
